How the values were obtained:
MDCKII-MDR1 cells = assay: MDCKII-MDR1 cell permeability assay; assay type: in vitro ADME, canine; conditions: result in words
Protocol: Compounds were evaluated at Pharmaron Inc. for their ability to permeate Caco-2 cells and MDCKII-MDR1 cells. A 96-well HTS Transwell plate (Corning) was used for the Caco-2 and MDCKII-MDR1 cell seeding. Caco-2 cells were seeded at a density of 6.86×10^5 cells/mL and cultivated for 14-18 days prior to assays. MDCKII-MDR1 cells were seeded at a density of 1.56×10^6 cells/mL and cultivated for 4-8 days prior to assays. To determine the rate of drug transport in both the absorptive (apical to basolateral (A-B)) and secretory (basolateral to apical (B-A)) directions, compounds (5 μM in DMSO for Caco-2 cells, and 1 μM in DMSO for MDCKII-MDR1 cells) were added to the donor wells. Plates were incubated at 37° C. for 2 h and samples (50 μL) were taken at the beginning and end of the incubation in both the donor and acceptor wells with the assay run in duplicate (n=2). Samples were analyzed by LC-MS/MS. The apparent permeability coefficient (Papp) in units (cm/s×10^−6) was calculated using the following equation.
where, VA represents the volume (mL) in the acceptor well. Area is the surface of the membrane (0.143 cm^2 for Transwell-96 well plate) and time is the total transport time in sec.
The efflux ratio was determined using the following equation: Efflux ratio=Papp (B-A)/Papp(A-B)
Where, Papp (B-A) indicates the apparent permeability in the basolateral to apical direction, and Papp (A-B) indicates the apparent permeability in the apical to basolateral direction.

[1] = system: Salmonella strains (TA98, TA100, TA1537 and TA1535); assay type: cell-based; conditions: bacterial cytotoxicity observed above
Protocol: Compounds were assessed for mutagenicity at Eurofins Panlabs. in 384-well plates using four Salmonella strains: TA98, to probe for frameshift mutation (with quercetin as control), TA100 and TA1535, to probe for base pair […] (with streptozotocin as control), and TA1537, to probe for frameshift mutations (with aminoacridine as control) as previously described.^21 Each compound was incubated at 37° C. for 96 h at four different concentrations (5, 10, 50, and 100 μM), with each concentration tested using 48 replicates, both with and without rat liver S9 metabolic activation. A concurrent bacterial cytotoxicity assay was ran at 0.6, 1.2, 2.5, 5, 10, 25, 50 and 100 μM to rule out false negatives. Bacterial cytotoxicity was expressed as percent of control growth (OD650). Compounds with growth of less than 60% control were flagged and considered bacterial cytotoxic. […] Significances of the positive counts between the treatment and control were determined using one-tailed Fisher's exact test.

[2] = Metabolic stability in liver microsomes; assay type: in vitro ADME; conditions: human and rat / multiple species; result in words
Protocol: Assessment of the compounds metabolic stability in incubations containing liver microsomes and hepatocytes of human and rat using the compound depletion approach was performed by Pharmaron Inc. Compound 15 underwent additional stability evaluation in monkey and dog hepatocytes. Microsome stability was assessed in duplicate (n=2) in the presence and absence of NADPH with liver microsomes (0.5 mg/mL) from human (BD Gentest) and SD rat (BD Gentest). Compounds were incubated in liver microsomes at 1 μM and samples (30 μL) were taken at 0.5, 15, 30, 45 and 60 min time points for analysis by LC-MS/MS. Hepatocyte stability was assessed in duplicate (n=2) at a working cell density of 0.5×10^6 cells/mL with hepatocytes from human (BioIVT), SD rat (BioIVT), cynomolgous monkey (RILD) or beagle dog (BioIVT). Compounds were incubated in hepatocytes at 1 μM and samples (25 μL) were taken at 0.5, 15, 30, 60, 90 and 120 min time points for analysis by LC-MS/MS. The in vitro half-life and intrinsic clearances were determined as previously described.^19
In vitro half-life (in vitro t1/2) was determined from the slope value in: in vitro t1/2=−(0.693/k).
Where, k, was determined by linear regression of the natural logarithm of the remaining percentage of the parent drug vs incubation time curve.

[3] = Oral CNS pharmacokinetics in SD rats; assay type: in vivo; conditions: male, rat, brain and plasma, single oral dose 20 mg/kg, read-out: Kp,uu (unbound brain-to-unbound plasma partitioning coefficient) (AUCinf)
Protocol: Animal experiments were performed at Pharmaron Inc. and animal use was approved by Pharmaron's Institutional Animal Care and Use Committee (IACUC) in Pharmaron (Pharmaron IACUC, Protocol #PK-M-07182022, #PK-R-06012022 and #ON-CELL-XEN-06012022) following the guidance of AAALAC. Six- to eight-week-old male SD rats (approximately 200-300 g) obtained from Si Bei Fu Laboratory Animal Technology Co., six- to eight-week-old male CD1 mice (approximately 20-30 g) obtained from Si Bei Fu Laboratory Animal Technology Co., and six- to eight-week-old female BALB/c nude mice (approximately 20-30 g) obtained from Si Bei Fu Laboratory Animal Technology Co., were used in the pharmacokinetic studies. Six- to eight-week-old female BALB/c nude mice (approximately 18-22 g) obtained from Beijing Anikeeper Biotech Co., Ltd were used in the intracranial PDX study. […]
Oral CNS pharmacokinetic assessment of 15 was done by oral gavage (formulation: 1% methylcellulose) followed by blood and brain sampling at 7 time points (0.25, 0.5, 1, 2, 4, 8, 24 h post dose) with n=3 animals per time point (n=21 total). […] Concentrations of 15 in the plasma and brain samples were determined using LC-MS/MS and WinNonlin 8.3 (Phoenix™) was used for pharmacokinetic calculations. […]

## COc1cc2ncnc(Nc3cccc(Cl)c3F)c2cc1OCCON1CCN(C)CC1 [Compound 15, N-(3-chloro-2-fluorophenyl)-7-methoxy-6-(2-((4-methylpiperazin-1-yl)oxy)ethoxy)quinazolin-4-amine]
MDCKII-MDR1 cells
  efflux: low efflux
  permeability: excellent permeability
[1]
  concentration up to which negative ames result is valid: up to 50 uM
[2]
  stability in liver microsomes: good stability
[3]
  Kp,uu (unbound brain-to-unbound plasma partition coefficient): 0.33

Reference: patent US20250236596A1, “HYDROXYLAMINE-BASED EGFR INHIBITORS FOR TREATMENT OF CANCER WITH BRAIN METASTASES” (University of Georgia Research Foundation, Inc., priority 2022, published 2025)
